Results from paper PMC10065276, “Enhanced therapeutic window for antimicrobial Pept-ins by investigating their structure-activity relationship” (PLOS ONE, 2023).
Positions of bridges follow the written chain, without caps; N, C: chain ends. Residues, ends and D or L forms follow the SMILES beside them.

Tested on: E. coli BL21
Settings: BL21, 17 h
Description: The peptide MIC was determined via the broth microdilution assay according to the EUCAST guideline, using 96-well polystyrene flat-bottom microtiter plates (BD Biosciences). Briefly, a single colony was inoculated in 5 mL Mueller-Hinton (MH) medium and incubated, while shaking at 37°C, to the end-exponential growth phase. The bacterial culture was subsequently diluted to 0.005 McFarland (McF) (~1.5x10^6 CFU/mL) with fresh MH medium. Two-fold serial peptide-dilutions were prepared in 50 μL MH medium resulting in a concentration range of 0.75 to 100 μg/mL (at least three wells for each concentration). Afterwards, 50 μL of the freshly diluted bacterial suspension (0.005 McF) was mixed with different peptide concentrations in the 96-well plate, performed in triplicates. The plate was ultimately incubated at 37°C overnight without shaking for 17 hours. The MIC was determined as the lowest peptide concentration without visible bacterial growth.

Row | Structure (SMILES) | BL21 MIC [µg/mL] | BL21 MIC, SS bond [µg/mL] | BL21 MIC, no SS bond [µg/mL]
1 | CC(C)C[C@H](NC(=O)CNC(=O)[C@@H](N)CCCNC(=N)N)C(=O)NCC(=O)N[C@@H](CC(C)C)C(=O)N[C@@H](C)C(=O)N[C@@H](CC(C)C)C(=O)N[C@H](C(=O)N[C@@H](CCCNC(=N)N)C(=O)N[C@@H](CCCNC(=N)N)C(=O)N1CCC[C@H]1C(=O)N[C@@H](CCCNC(=N)N)C(=O)NCC(=O)N[C@@H](CC(C)C)C(=O)N[C@@H](C)C(=O)N[C@@H](CC(C)C)C(=O)N[C@@H](C)C(=O)N[C@@H](CC(C)C)C(=O)N[C@H](C(=O)N[C@@H](CCCNC(=N)N)C(=O)N[C@@H](CCCNC(=N)N)C(=O)O)C(C)C)C(C)C [Peptide P2_G15A] (H-RGLGLALVRRPRGLALALVRR-OH) | 12.50 |  | 
2 | CC(C)C[C@H](NC(=O)CNC(=O)[C@H](CCCNC(=N)N)NC(=O)[C@H](CCCNC(=N)N)NC(=O)[C@@H]1CCCN1C(=O)[C@H](CCCNC(=N)N)NC(=O)[C@@H](NC(=O)[C@H](CC(C)C)NC(=O)[C@H](C)NC(=O)[C@H](CC(C)C)NC(=O)CNC(=O)[C@H](CC(C)C)NC(=O)CNC(=O)[C@H](CCCNC(=N)N)NC(=O)[C@@H](N)CCCNC(=N)N)C(C)C)C(=O)NCC(=O)N[C@@H](CC(C)C)C(=O)N[C@@H](C)C(=O)N[C@@H](CC(C)C)C(=O)N[C@H](C(=O)N[C@@H](CCCNC(=N)N)C(=O)O)C(C)C [Peptide P2_GK_10] (H-RRGLGLALVRPRRGLGLALVR-OH) | 12.50 |  | 
3 | CC(C)C[C@H](NC(=O)CNC(=O)[C@H](CCCNC(=N)N)NC(=O)[C@@H]1CSSC[C@H](NC(=O)[C@@H](NC(=O)[C@H](CC(C)C)NC(=O)[C@H](C)NC(=O)[C@H](CC(C)C)NC(=O)CNC(=O)[C@H](CC(C)C)NC(=O)CNC(=O)[C@@H](N)CCCNC(=N)N)C(C)C)C(=O)N[C@@H](CCCNC(=N)N)C(=O)N[C@@H](CCCNC(=N)N)C(=O)N[C@@H](CCCNC(=N)N)C(=O)N[C@@H](Cc2ccccc2)C(=O)N1)C(=O)NCC(=O)N[C@@H](CC(C)C)C(=O)N[C@@H](C)C(=O)N[C@@H](CC(C)C)C(=O)N[C@H](C(=O)N[C@@H](CCCNC(=N)N)C(=O)N[C@@H](CCCNC(=N)N)C(=O)O)C(C)C [Peptide P2_H12_FC] (H-RGLGLALVCRRRFCRGLGLALVRR-OH; disulfide 9-14) |  | 3.50 | 6.25
4 | CC(C)C[C@H](NC(=O)CNC(=O)[C@H](CCCNC(=N)N)NC(=O)[C@@H]1CSSC[C@H](NC(=O)[C@@H](NC(=O)[C@H](CC(C)C)NC(=O)[C@H](C)NC(=O)[C@H](CC(C)C)NC(=O)CNC(=O)[C@H](CC(C)C)NC(=O)CNC(=O)[C@@H](N)CCCNC(=N)N)C(C)C)C(=O)N[C@@H](CCCNC(=N)N)C(=O)N[C@@H](CCCNC(=N)N)C(=O)N[C@@H]([C@@H](C)O)C(=O)NCC(=O)N1)C(=O)NCC(=O)N[C@@H](CC(C)C)C(=O)N[C@@H](C)C(=O)N[C@@H](CC(C)C)C(=O)N[C@H](C(=O)N[C@@H](CCCNC(=N)N)C(=O)N[C@@H](CCCNC(=N)N)C(=O)O)C(C)C [Peptide P2_H12_TG] (H-RGLGLALVCRRTGCRGLGLALVRR-OH; disulfide 9-14) |  | 6.50 | 6.25
5 | CC(C)C[C@H](NC(=O)CNC(=O)[C@H](CCCNC(=N)N)NC(=O)[C@@H]1CSSC[C@H](NC(=O)[C@@H](NC(=O)[C@H](CC(C)C)NC(=O)[C@H](C)NC(=O)[C@H](CC(C)C)NC(=O)CNC(=O)[C@H](CC(C)C)NC(=O)CNC(=O)[C@@H](N)CCCNC(=N)N)C(C)C)C(=O)N[C@@H](CCCNC(=N)N)C(=O)N[C@@H](CCCNC(=N)N)C(=O)N[C@H](Cc2ccccc2)C(=O)N2CCC[C@H]2C(=O)N1)C(=O)NCC(=O)N[C@@H](CC(C)C)C(=O)N[C@@H](C)C(=O)N[C@@H](CC(C)C)C(=O)N[C@H](C(=O)N[C@@H](CCCNC(=N)N)C(=O)N[C@@H](CCCNC(=N)N)C(=O)O)C(C)C [Peptide P2_H12_fP] |  | 3.13 | 6.25
6 | CC(C)C[C@H](NC(=O)CNC(=O)[C@H](CCCNC(=N)N)NC(=O)[C@@H]1CSSC[C@H](NC(=O)[C@@H](NC(=O)[C@H](CC(C)C)NC(=O)[C@H](C)NC(=O)[C@H](CC(C)C)NC(=O)CNC(=O)[C@H](CC(C)C)NC(=O)CNC(=O)[C@@H](N)CCCNC(=N)N)C(C)C)C(=O)N[C@@H](CCCNC(=N)N)C(=O)N[C@@H](CCCNC(=N)N)C(=O)N2CCC[C@@H]2C(=O)NCC(=O)N1)C(=O)NCC(=O)N[C@@H](CC(C)C)C(=O)N[C@@H](C)C(=O)N[C@@H](CC(C)C)C(=O)N[C@H](C(=O)N[C@@H](CCCNC(=N)N)C(=O)N[C@@H](CCCNC(=N)N)C(=O)O)C(C)C [Peptide P2_H12_pG] |  | 3.13 | 6.25
7 | CC(C)C[C@H](NC(=O)CNC(=O)[C@H](CCCNC(=N)N)NC(=O)[C@@H]1CCCN1C(=O)[C@H](CCCNC(=N)N)NC(=O)[C@H](CCCNC(=N)N)NC(=O)[C@@H](NC(=O)[C@H](CC(C)C)NC(=O)[C@H](C)NC(=O)[C@H](CC(C)C)NC(=O)CNC(=O)[C@H](C)NC(=O)CNC(=O)[C@@H](N)CCCNC(=N)N)C(C)C)C(=O)NCC(=O)N[C@@H](CC(C)C)C(=O)N[C@@H](C)C(=O)N[C@@H](CC(C)C)C(=O)N[C@H](C(=O)N[C@@H](CCCNC(=N)N)C(=O)N[C@@H](CCCNC(=N)N)C(=O)O)C(C)C [Peptide P2_L3A] (H-RGAGLALVRRPRGLGLALVRR-OH) | 12.50 |  | 
8 | CC(C)C[C@H](NC(=O)CNC(=O)[C@H](CCCNC(=N)N)NC(=O)[C@@H]1CCCN1C(=O)[C@H](CCCNC(=N)N)NC(=O)[C@H](CCCNC(=N)N)NC(=O)[C@@H](NC(=O)[C@H](CC(C)C)NC(=O)[C@H](C)NC(=O)[C@H](C)NC(=O)CNC(=O)[C@H](CC(C)C)NC(=O)CNC(=O)[C@@H](N)CCCNC(=N)N)C(C)C)C(=O)NCC(=O)N[C@@H](CC(C)C)C(=O)N[C@@H](C)C(=O)N[C@@H](CC(C)C)C(=O)N[C@H](C(=O)N[C@@H](CCCNC(=N)N)C(=O)N[C@@H](CCCNC(=N)N)C(=O)O)C(C)C [Peptide P2_L5A] (H-RGLGAALVRRPRGLGLALVRR-OH) | 50.00 |  | 
9 | CC(C)C[C@H](NC(=O)CNC(=O)[C@H](CCCNC(=N)N)NC(=O)[C@@H]1CCCN1C(=O)[C@H](CCCNC(=N)N)NC(=O)[C@H](CCCNC(=N)N)NC(=O)[C@@H](NC(=O)[C@H](C)NC(=O)[C@H](C)NC(=O)[C@H](CC(C)C)NC(=O)CNC(=O)[C@H](CC(C)C)NC(=O)CNC(=O)[C@@H](N)CCCNC(=N)N)C(C)C)C(=O)NCC(=O)N[C@@H](CC(C)C)C(=O)N[C@@H](C)C(=O)N[C@@H](CC(C)C)C(=O)N[C@H](C(=O)N[C@@H](CCCNC(=N)N)C(=O)N[C@@H](CCCNC(=N)N)C(=O)O)C(C)C [Peptide P2_L7A] (H-RGLGLAAVRRPRGLGLALVRR-OH) | 50.00 |  | 
10 | CC(C)C[C@H](NC(=O)CNC(=O)[C@@H](N)CCCNC(=N)N)C(=O)NCC(=O)N[C@@H](CC(C)C)C(=O)N[C@@H](C)C(=O)N[C@@H](CC(C)C)C(=O)N[C@H](C(=O)N[C@@H](CCCNC(=N)N)C(=O)N[C@@H](CCCNC(=N)N)C(=O)N1CCC[C@H]1C(=O)N[C@@H](CCCNC(=N)N)C(=O)NCC(=O)N[C@@H](C)C(=O)NCC(=O)N[C@@H](CC(C)C)C(=O)N[C@@H](C)C(=O)N[C@@H](CC(C)C)C(=O)N[C@H](C(=O)N[C@@H](CCCNC(=N)N)C(=O)N[C@@H](CCCNC(=N)N)C(=O)O)C(C)C)C(C)C [Peptide P2_L14A] (H-RGLGLALVRRPRGAGLALVRR-OH) | 25.00 |  | 
11 | CC(C)C[C@H](NC(=O)CNC(=O)[C@H](CCCNC(=N)N)NC(=O)[C@@H]1CCCN1C(=O)[C@H](CCCNC(=N)N)NC(=O)[C@H](CCCNC(=N)N)NC(=O)[C@@H](NC(=O)[C@H](CC(C)C)NC(=O)[C@H](C)NC(=O)[C@H](CC(C)C)NC(=O)CNC(=O)[C@H](CC(C)C)NC(=O)CNC(=O)[C@@H](N)CCCNC(=N)N)C(C)C)C(=O)NCC(=O)N[C@@H](C)C(=O)N[C@@H](C)C(=O)N[C@@H](CC(C)C)C(=O)N[C@H](C(=O)N[C@@H](CCCNC(=N)N)C(=O)N[C@@H](CCCNC(=N)N)C(=O)O)C(C)C [Peptide P2_L16A] (H-RGLGLALVRRPRGLGAALVRR-OH) | 50.00 |  | 
12 | CC(C)C[C@H](NC(=O)CNC(=O)[C@H](CCCNC(=N)N)NC(=O)[C@@H]1CCCN1C(=O)[C@H](CCCNC(=N)N)NC(=O)[C@H](CCCNC(=N)N)NC(=O)[C@@H](NC(=O)[C@H](CC(C)C)NC(=O)[C@H](C)NC(=O)[C@H](CC(C)C)NC(=O)CNC(=O)[C@H](CC(C)C)NC(=O)CNC(=O)[C@@H](N)CCCNC(=N)N)C(C)C)C(=O)NCC(=O)N[C@@H](CC(C)C)C(=O)N[C@@H](C)C(=O)N[C@@H](C)C(=O)N[C@H](C(=O)N[C@@H](CCCNC(=N)N)C(=O)N[C@@H](CCCNC(=N)N)C(=O)O)C(C)C [Peptide P2_L18A] (H-RGLGLALVRRPRGLGLAAVRR-OH) | 50.00 |  | 
13 | CC(C)C[C@H](NC(=O)CNC(=O)[C@H](CCCNC(=N)N)NC(=O)[C@@H]1CCCN1C(=O)[C@H](CCCNC(=N)N)NC(=O)[C@H](C)NC(=O)[C@@H](NC(=O)[C@H](CC(C)C)NC(=O)[C@H](C)NC(=O)[C@H](CC(C)C)NC(=O)CNC(=O)[C@H](CC(C)C)NC(=O)CNC(=O)[C@@H](N)CCCNC(=N)N)C(C)C)C(=O)NCC(=O)N[C@@H](CC(C)C)C(=O)N[C@@H](C)C(=O)N[C@@H](CC(C)C)C(=O)N[C@H](C(=O)N[C@@H](CCCNC(=N)N)C(=O)N[C@@H](CCCNC(=N)N)C(=O)O)C(C)C [Peptide P2_R9A] (H-RGLGLALVARPRGLGLALVRR-OH) | 12.50 |  | 

Same assay, conditions: S1 Table, gatekeeper modification; broth microdilution, MH medium, 37°C, 17 h

Row | Structure (SMILES) | BL21 MIC [µg/mL]
14 | CC(C)C[C@H](NC(=O)CNC(=O)[C@H](CC(N)=O)NC(=O)[C@@H]1CCCN1C(=O)[C@H](CC(N)=O)NC(=O)[C@H](CC(N)=O)NC(=O)[C@@H](NC(=O)[C@H](CC(C)C)NC(=O)[C@H](C)NC(=O)[C@H](CC(C)C)NC(=O)CNC(=O)[C@H](CC(C)C)NC(=O)CNC(=O)[C@@H](N)CC(N)=O)C(C)C)C(=O)NCC(=O)N[C@@H](CC(C)C)C(=O)N[C@@H](C)C(=O)N[C@@H](CC(C)C)C(=O)N[C@H](C(=O)N[C@@H](CC(N)=O)C(=O)N[C@@H](CC(N)=O)C(=O)O)C(C)C [Peptide P2_N] (H-NGLGLALVNNPNGLGLALVNN-OH) | >100.00
